# Reference: US20240058268A1, “METHODS OF TREATING SKIN DISORDERS” (priority 2021, published 2024)
# Tested on: acne papule biopsies, Diseases or Functions Annotation
# Experiment: Ingenuity Pathway Analysis, diseases or functions activation of the trifarotene signature
# Format: in vivo, human
# Details: trifarotene treated area (day 27) vs papule before treatment
# Experimental: Functional and network analysis were generated with the Ingenuity Pathway Analysis software (QIAGEN® Inc., qiagenbioinformatics.com/products/ingenuity-pathway-analysis), and with Open Targets (opentargets.org/). IPA was used to identify canonical pathways, diseases and functions, and gene networks related to differentially expressed genes in acne lesions and post-lesional skin after treatment with trifarotene or vehicle. In addition, gene set enrichment analysis was performed with the R package FGSEA (version 1.12.0) using the hallmark and reactome gene sets. A comparative analysis was performed to identify expression patterns: For this analysis, the following comparisons were made to develop characteristic expression patterns: (a) Papule before treatment vs non-involved skin was used to derive an acne signature; (b) Resolved papule zone after treated with vehicle vs papule before treatment was used to derive signature of spontaneously resolved papule; and (c) Resolved papule zone after treatment with trifarotene vs papule before treatment to determine trifarotene treatment signature. […]
smiles,measurement,value
"CC(C)(C)c1cc(-c2cc(-c3ccc(C(=O)O)cc3)ccc2OCCO)ccc1N1CCCC1 [Trifarotene, 3″-tert-Butyl-4′-(2-hydroxy-ethoxy)-4″-pyrrolidin-1-yl-[1,1′,3′,1″ ]terphenyl-4-carboxylic acid]",Activation z.score Trifarotene signature: Flux of Ca2+,−2.838
